Assays:
[1] = system: electroshock-induced seizures; assay: Mouse electroshock-induced seizure model; type: in vivo; settings: mice
Experimental: This assay detects effects of compounds that produce generalized seizures and those that dampen seizure spread. Male, CD1 mice (Taconic Farms) were studied at weights of 21-32 g. Mice=10/dose) were used with Wahlquist Model H stimulator with 0.2 sec stimulation with corneal electrodes. […] Mice were euthanized immediately following the test. Tonic extension was used as the primary endpoint.
(§1) For the in vivo assays, minimal effective doses (MED) were calculated in mg/kg. MED was defined as the lowest dose administered that produced statistically significant protection compared to vehicle control in the anticonvulsant assays. The MED, or minimal toxic dose (MTD) for motor impairment, was the minimal dose required to produce statistically-significant impairment in motor performance. Doses tested are shown in the figures and tables and are generally dosed in ½ log increments. The protective index (PT) was calculated at the MTD/MED.

PTZ-induced clonus = assay: Pentylenetetrazole (PTZ, 35 mg/kg s.c.)-induced clonic convulsions; type: in vivo; settings: for PTZ Clonus to Criteria 1: MED producing maximal protection (0% seizures); for PTZ Clonus Potency (MED): lowest dose with statistically significant protection; for PTZ Clonus Potency (MED) / protection against PTZ-induced clonus: PTZ 35 mg/kg s.c.
Experimental: After the inverted screen test, the rats were dosed with pentylenetetrazole (PTZ)(35 mg/kg, s.c.) in a volume of 1 ml/kg and placed in an observation cage (40.6×20.3×15.2 cm) with a floor containing […] of wood chip bedding material. PTZ dose was determined to be ˜EC97 for producing clonic convulsions.

PTZ seizure threshold = assay: Pentylenetetrazole (PTZ, i.v.)-induced seizure threshold; type: in vivo, rats
Experimental: Male […] Sprague-Dawley rats (Indianapolis, Ind.) were randomly assigned to treatment groups and dosed with vehicle (vehicle=1% carboxymethyl cellulose) with diazepam (0.1, 0.3, or 1 mg/kg) or test compound (3, 10, 30, or 60 mg/kg) 30 minutes prior to testing. Rats were placed in a restrainer and a winged infusion needle was inserted into the lateral tail vein. Intravenous infusion with 10 mg/ml PTZ at a rate of 0.5 ml/min was initiated until a clonic convulsion occurred, and the time to clonic convulsion was recorded in sec or a maximum of 4 min was recorded. Following infusion, rats are euthanized. The dose of PTZ required to elicit a clonic convulsion was calculated using the infusion rate, concentration of PTZ, time to clonic convulsion, and animal weight.

[2] = system: seizures in amygdala kindled rats; assay: Basolateral amygdala kindling; type: in vivo
Experimental: Seizure kindling models evaluate effects of drugs on the sensitization of the nervous system to seizure induction. In this test, drugs were evaluated for their ability to impact seizure parameters in rats that were fully kindled by daily electrical stimulation of their amygdala. Valproic acid was used as a positive control. Experiments were conducted using the general procedures of Zwart et al. (J. Pharmacol. Exp. Ther., 2014, 351:124-133). A bipolar electrode for electrical stimulation and EEG recording was stereotaxically implanted into one hemisphere of the basolateral amygdala (AP −2.2, ML −4.8, DV −8.5 mm, relative to bregma) of male Wistar rats. After post-operative recovery, electrical kindling begins, where a subthreshold constant current (400 μA, 1 ms, monophasic square-wave pulses, 60 Hz for 1 sec) is given once a day Monday-Friday for about 4-6 weeks until a rat is fully kindled. A fully kindled rat has experienced 10 consecutive stage 5 seizures or 10 of its last 12 were stage 5 according to the Racine Scale.
Twelve fully kindled rats were assigned to this study, and eight rats were selected and randomized to initial compound treatment groups from baseline after discharge threshold (ADT), seizure severity score, and after discharge duration (ADD). […] On test day, rats were dosed 30 min prior to beginning stimulation. After the pre-treatment, rats were stimulated using an ascending staircase sequence beginning at 10 μA and increasing in log unit steps of 10, 16, 25, 40, 65, 100, 160, 250, and 400 μA. Animals were stimulated until they were assigned a Seizure Severity Score for a visually observably seizure or they reached the 400 μA threshold limit. ADD was determined following testing. ADT was the current that induced a seizure; measurements were scale-adjusted to capture the stimulation scale change required to observe a seizure from the previous baseline to the ADT scored on test day. […] The average scale adjusted ADT was approximately 0.63 μA in vehicle treated rats.
Racine score of behavioral response to stimulation: 0=no behavioral response; 1=immobility, staring and/or facial clonus; 2=head nodding, jaw clonus, and/or tongue protrusion; 3=unilateral forelimb clonus; 4=bilateral forelimb clonus and/or rearing; 5=bilateral forelimb clonus with rearing and loss of balance.
After-Discharge Duration (ADD) is the duration of the first after-discharge.
ADT, ADD, and severity scores were analyzed by ANOVA. Seizure severity data was also analyzed by the nonparametric Skillings-Mack test, a generalization of the Friedman test for one-way repeated measures designs. Posthoc tests when reported were either by Dunnett's method (seizure severity) or using Wilcoxon sign rank tests (ADT and ADD). Valproic acid, used as a positive control was not used in ANOVA calculations.

[3] = system: immobility in forced-swim test; assay: Forced-swim assay; type: in vivo, mice
Experimental: Male NIH Swiss mice (Envigo, Indianapolis, Ind.) were studied. Mice were placed in clear plastic cylinders (diameter: 10 cm; height: 25 cm) filled with 6 cm of water (22-25° C.) for six min. […] The duration of immobility during the last four min of the six min test period was scored. A mouse was recorded as immobile when floating motionless or making only those movements necessary to keep its head above water.

[4] = system: motor performance on inverted screen
Experimental: Without prior pretraining, mice were placed on an 11 cm×14 cm square of round hole, perforated stainless steel mesh (18 holes/square inch, 3/16 inch diameter, ¼ inch staggered centers, 50% open area) mounted on a metal rod, 35 cm above the table top. The screen was slowly inverted such that the mouse was on the underside of the screen. Mice were then scored for 60 sec as follows: 0=climbed to top of screen, 1=hung onto bottom of screen, 2=fell off. Data were analyzed by ANOVA followed by post-hoc Dunnett's test.
The test compounds were suspended in 1% hydroxyethylcellulose/0.05% Tween 80/0.05% Dow antifoam. […] Compounds were administered in a volume of 10 ml/kg and were given 30 min prior to testing via the i.p. route of administration; diazepam was dosed orally, 30 min prior to testing.

[5] = system: motor performance on an inverted screen; assay: Rat inverted screen test (motor impairment); settings: up to 30 mg/kg, rats, inverted screen
Text: The motor effects of Diazepam and KRM-II-81 were studied on the inverted screen. The inverted screen test is used to measure whether or not a test compound induces muscle relaxation. When a test subject is placed on a wire screen which is then inverted, the reaction is to climb to the opposite side so they are no longer hanging upside down.
Male, Sprague Dawley rats (Harlan Sprague Dawley, Indianapolis, Ind.) were used and weighed 90-110 g when evaluated in experiments. […] Rats were placed onto the top of a wire screen, which was then inverted so that the rats were hanging upside down.
Male Sprague-Dawley rats (n=5) were dosed i.p. (vehicle=1% carboxymethyl cellulose) with diazepam (3, 10, or 30 mg/kg), KRM-II-81 (10, 30, or 60 mg/kg) or HZ-166 (30 mg/kg) 30 minutes prior to testing. Rats were placed onto the top of a wire screen, which was then inverted so that the rats were hanging upside down. […] Results were analyzed using ANOVA (Dunnett's test: *P<0.05).
as §1

[6] = system: human (α2), or rat (α1, α3, α5, γ2L, β3) GABAA receptor subunits; assay: Whole-cell patch-clamp GABA current responses in transfected HEK-293T cells; type: cell-based; settings: GABA EC3-5, drug concentration 100 nM
Experimental: Human […] (HEK-293T) were transiently transfected with full-length cDNAs encoding human (α2), or rat (α1, α3, α5, γ2L, β3) GABAA receptor subunits using calcium phosphate precipitation. Positively transfected cells were isolated by utilizing co-transfection of a plasmid encoding a surface antibody (pHook™-1, Invitrogen). 20-52 hours following transfection, cells were mixed with magnetic beads coated with antigen specific for the pHook antibody, isolated with a magnetic stand, and then plated onto coverslips and used for patch-clamp recordings 18-28 hours later.
Current responses to GABA were recorded in the whole-cell configuration, with cells voltage-clamped at −50 mV. The bath solution contained (in mM): 142 NaCl, 8.1 KCl, 6 MgCl2, 1 CaCl2), and 10 HEPES (4-(2-hydroxyethyl)-1-piperazineethanesulfonic acid) with pH=7.4 and osmolarity adjusted to 295-305 mOsm. The electrode (internal) solution consisted of (in mM); 153 KCl, 1 MgCl2, 5 K-EGTA (ethylene glycol-bis (β-aminoethyl ether N,N,N′N′-tetraacetate)), and 10 HEPES with pH=7.4 and osmolarity adjusted to 295-305 mOsm. […] Currents were recorded with an Axon 200B (Foster City, Calif.) patch clamp amplifier. […] Data were analyzed by two-way ANOVA followed by post-hoc Tukey's multiple comparison test. […]

Structure (SMILES): CN1C(=O)CN=C(c2ccccc2)c2cc(Cl)ccc21 [Diazepam, diazepam, reference compound]
- potency relative to KRM-II-81 to induce full seizure protection ([1]; electroshock): 5 ×
- Electroshock (minimal effective dose, MED) ([1]; lowest dose with statistically significant protection vs vehicle): 3 mg/kg
- protection against electroshock-induced seizures [1]: fully prevented
- PTZ Clonus to Criteria 1 (PTZ-induced clonus; rats): 10 mg/kg
- potency relative to KRM-II-81 to induce full seizure protection (PTZ-induced clonus; PTZ-induced clonus, rats): 10 ×
- convulsions (rats convulsing/tested) after PTZ (PTZ-induced clonus; diazepam 30 mg/kg p.o. + PTZ): 0/5
- PTZ Clonus Potency (MED) (PTZ-induced clonus; rats): 10 mg/kg
- protection against PTZ-induced clonus (PTZ-induced clonus; rats): fully prevented
- PTZ Threshold to Criteria (PTZ seizure threshold; MED for producing ≥2× PTZ seizure threshold at baseline): >1 mg/kg
- potency relative to KRM-II-81 and KRM-II-82 (PTZ seizure threshold; PTZ seizure threshold, rats): about 10 times
- PTZ Threshold Poteny (MED) (PTZ seizure threshold; lowest dose with statistically significant effect, rats, PTZ i.v.): 1 mg/kg
- effect on dose of PTZ required to induce convulsions (PTZ seizure threshold; rats, PTZ i.v. infusion, pretreatment 30 min): increased the dose of PTZ required to induce convulsions
- After-Discharge Duration to Criteria ([2]; MED for producing after-discharge duration ≤30 sec): >10 mg/kg
- After-Discharge Threshold to Criteria ([2]; MED for producing after-discharge threshold ≥3): >10 mg/kg
- Seizure Severity to Criteria ([2]; MED for producing seizure severity score ≤2): 10 mg/kg
- After-Discharge Duration Potency (MED) ([2]; amygdala kindled rats): >10 mg/kg
- After-Discharge Threshold Potency (MED) ([2]; amygdala kindled rats): 10 mg/kg
- Seizure Severity Poteny (MED) ([2]; amygdala kindled rats): 10 mg/kg
- effect on adjusted after-discharge threshold (ADT) ([2]; amygdala kindled rats): significantly increased
- effect on after-discharge duration (ADD) ([2]; amygdala kindled rats): trend for a significant effect
- effect on seizure severity score / kindling measures ([2]; amygdala kindled rats): decreased significantly
- Seizure free scores (seizure severity=0) ([2]; amygdala kindled rats, groups of 8): 2/8
- antidepressant-like effect in forced-swim assay ([3]; diazepam 22 mg/kg p.o. alone, mice): did not produce an antidepressant-like effect
- motor impairment on inverted screen ([4]; diazepam 22 mg/kg p.o., mice): still significant but not maximal
- motor impairment score on inverted screen test ([4]; diazepam 30 mg/kg p.o., prior data, out of 2.0): 1.8

Structure (SMILES): C#Cc1ccc2c(c1)C(c1ccccn1)=NCc1c(-c3nc(CC)no3)ncn1-2 [MP-III-080, 3-ethyl-5-(8-ethynyl-6-(pyridin-2-yl)-4H-benzo[f]imidazo[1,5-a][1,4]diazepin-3-yl)-1,2,4-oxadiazole]
- Electroshock to Criteria ([1]; MED producing maximal protection (0% seizures)): 5.6 mg/kg
- PTZ Clonus to Criteria 1 (PTZ-induced clonus; rats): 10 mg/kg
- PTZ Clonus Potency (MED) (PTZ-induced clonus; rats): 10 mg/kg
- protection against PTZ-induced clonus (PTZ-induced clonus; rats): dose-dependently suppressed
- effect on motor performance [5]: without significant effect on motor performance
- selectivity for α2 and α3 over α1 [6]: selective for α2 and α 3 over α1
- immobility in forced-swim assay ([3]; male NIH Swiss mice, i.p., 30 min prior): significantly decreased immobility time

Reference: US20200316087A1, “NOVEL COMBINATION THERAPY FOR ANXIETY DISORDERS, EPILEPSY, AND PAIN” (priority 2017, published 2020)
